# Measured values reported in patent US20060216363A1, “Novel herbal composition” (priority 2005, published 2006).
# Key:
# [1] = Free radical scavenger, SOD mimetic activity (xanthine/xanthine oxidase/NBT); format: biochemical; conditions: reference agents; read-out: Concentration at 50 % Inhibition
# Protocol: Conversion of xanthine to uric acid+O^−+NBT to formazan was then determined by measurement of absorbance at 595 nm and percent inhibition by superoxide dismutase or test compound was calculated.
# chondrocyte = conditions: Okazaki M, Osteoarthritis Cartilage 2003; cited from earlier work
# chondrocytes [2] = assay: Micromass culture of chondrocytes, staining for ALP, collagen and GAGs; format: cell-based, human; conditions: 1 mM, two weeks
# Protocol: Cells were grown for two weeks before measuring. […] Row A, B: alkaline phosphatase (ALP) stained by Naphthol AS-MX phosphate/Fast red; row C, D: collagen stained by Sirius red; row E, F: glycosaminoglycan stained by Safranin O.
# (§1) Human articular cartilage was obtained from patients who received total joint replacement with consent. The cartilage was digested with 1 mg/ml of Class 2 and Class 4 bacterial collagenase (Worthington Chemical, Freehold, N.J.) in DMEM containing 10% fetal calf serum (FCS) and 25 ug/ml Gentamicin (Gibco, Grand Island, N.Y.) (C-DMEM) at 37° C. overnight. The primary cells were plated at high density in 10 mm culture dish (Nunc, Roskilde, Danmark) in C-DMEM and cultured under humidified atmosphere containing 5% CO2 at 37° C.
# (§2) Ten ul of 1×10^7 cells in C-DMEM was seeded into the center of each well of 48 multiwell culture dish (Nunc, Roskilde, Danmark). Two hours later, 250 ul of F12/DMEM containing 5% FCS, 6.25 ug/ml bovine insulin, 25 ug/ml ascorbic acid and 100 nM Dexamethasone (induction medium) with various concentrations of herbal combinations or glucosamine (Sigma) was added. The media were changed twice a week for two weeks. At the end of the incubation, the media were changed with fresh DMEM. Twenty-four hours later, the media were collected for MMP zymography study and cells were fixed and stained for alkaline phosphatase (ALP), collagen or glycosaminoglycan using Naphthol AS-MX phosphate/Fast red, Sirius red, or Safranin O (Sigma), respectively.
# chondrocytes [3] = assay: Micromass culture of chondrocytes, herbal preparations in combination with glucosamine; format: cell-based, human
# Protocol: Expression was measured on micromass culture after cells grown for two weeks. Induction medium alone (left); with 0.1 mM glucosamine (middle); with 1 mM glucosamine (right). […] All the preparations were at 0.01 mg/ml. Row A, B: alkaline phosphatase (ALP) stained by Naphthol AS-MX phosphate/Fast red; row C, D: collagen stained by Sirius red; row E, F: glycosaminoglycans stained by Safranin O.
# as §1, §2
# chondrocytes [4] = assay: Gene expressions (RT-PCR) of shear-stressed vs. non-shear-stressed chondrocytes; format: cell-based, human; conditions: for Col I expression: glucosamine 1 mM
# Protocol: Confluent cells were treated with various herbal combinations in F12/DMEM containing 5% FCS, 6.25 ug/ml bovine insulin, 25 ug/ml ascorbic acid and 100 nM Dexamethasone for 2 weeks with medium changed twice a week. At the end of each treatment, cells were washed with PBS and incubated in DMEM overnight. Cells were then exposed to fluid-induced shear stress by a custom-made cone viscometer at the rate of 100 rpm for 2 hours. The shear stress induced at this speed was 0.82 Pa (8.2 dyn/cm^2). […] Another set of cells was treated similarly without shearing as the control. The cells were washed with PBS, and RNA was extracted by Tri-Reagent (Sigma).
# The RNA of cells was extracted with Tri-Reagent (Sigma). 800 ng of total RNA was reverse transcribed by Omniscript reverse transcriptase (Qiagen, Valencia, Calif.) in buffer containing 1 uM random primer, 0.5 mM each of dNTP, and 10 units of ribonuclease inhibitor. Reverse transcription was carried out at 37° C. for one hour by a programmable thermal controller (PTC-100, MJ Research, Inc., Watertown, Mass.). Reaction was terminated by raising the temperature to 93° C. for five minutes.
# PCR was performed in a thermal controller (PTC-100, MJ Research, Inc., Watertown, Mass.) with master mix (HotStarTaq DNA polymerase, Qiagen) at initial denaturation at 95° C. for 15 minutes, followed by 25 cycles of 94° C. for 1 minute, 58° C. for 40 seconds, and 72° C. for 40 seconds. The final cycle extended 72° C. for 10 minutes. The PCR products accompanied by 100 bp ET marker were separated by 1.2% agarose gel, stained with ethidium bromide and visualized under UV light. A Polaroid picture was taken by Foto/Phoresis UV documentation system (Fotodyne Inc.). Beta-actin expression under the same experimental conditions was used as a reference to normalize the expressions.
# MMP-2 = MMP-2 activities of chondrocyte culture supernatants by zymography; format: cell-based, human
# Protocol: Confluent cells were treated with various herbal combinations in F12/DMEM containing 5% FCS, 6.25 ug/ml bovine insulin, 25 ug/ml ascorbic acid and 100 nM Dexamethasone for 2 weeks with medium changed twice a week. At the end of each treatment, cells were washed with PBS and incubated in DMEM overnight. Cells were then exposed to fluid-induced shear stress by a custom-made cone viscometer at the rate of 100 rpm for 2 hours. The shear stress induced at this speed was 0.82 Pa (8.2 dyn/cm^2). Aliquots of culture medium were collected at designated time for nitric oxide measurement and MMP zymography analysis. Another set of cells was treated similarly without shearing as the control.
# Equal amount of protein of each culture medium was mixed with equal volume of 2× non-reducing SDS sample buffer, and incubated at room temperature for two hours for sample to denature. The samples were loaded into each well of a 10% SDS polyacrylamide gel containing 1 mg/ml of bovine gelatin (Sigma), and run at 20 mA in ice bath by a BioRad Mini Protean gel apparatus. After dye front reached the bottom of the gel, the gel was washed three times, 15 minutes each, with 2.5% Triton X-100. Then, the gel was renatured in developing buffer (50 mM Tris-HCl, pH7.6, 10 mM CaCl2, 50 mM NaCl, 0.05% Brij35) at 37° C. for 48 hours. […]
# chondrocytes [5] = assay: Nitric oxide determination (Griess) after fluid induced shear stress; format: cell-based, human; conditions: for NO Concentration: pretreated two weeks, 0.01 mg/ml or glucosamine 1 mM
# [6] = system: bone marrow mesenchymal stem cells; assay: Micromass culture of bone marrow mesenchymal stem cells, staining for ALP, collagen and GAGs; format: cell-based, human; conditions: 1 mM
# Protocol: Herbal preparations were treated to cells grown in the induction medium in micromass culture for two weeks.
# Human bone marrow mesenchymal stem cells were obtained from patients receiving total joint replacement with consent. The cells were cultured in DMEM containing 10% fetal calf serum (FCS), and 25 ug/ml Gentamicin (Gibco, Grand Island, N.Y.) (C-DMEM) at 37° C. under humidified atmosphere containing 5% CO2.
# as §2
# TIMP = TIMP activities of chondrocyte culture supernatants by reverse zymography; format: cell-based, human; conditions: non-sheared
# Protocol: Confluent cells were treated with various herbal combinations in F12/DMEM containing 5% FCS, 6.25 ug/ml bovine insulin, 25 ug/ml ascorbic acid and 100 nM Dexamethasone for 2 weeks with medium changed twice a week. At the end of each treatment, cells were washed with PBS and incubated in DMEM overnight. Cells were then exposed to fluid-induced shear stress by a custom-made cone viscometer at the rate of 100 rpm for 2 hours. The shear stress induced at this speed was 0.82 Pa (8.2 dyn/cm^2). […] Another set of cells was treated similarly without shearing as the control.
# Equal amount of protein of each culture medium was mixed with equal volume of 2× non-reducing SDS sample buffer, and incubated at room temperature for two hours for sample to denature. The samples were loaded into each well of a 10% SDS polyacrylamide gel containing 1 mg/ml of bovine gelatin (Sigma) and 1 ml serum free 24 hour's culture supernatant of human foreskin dermal fibroblast which expressed MMP, and run at 20 mA in ice bath by a BioRad Mini Protean gel apparatus. After dye front reached the bottom of the gel, the gel was washed three times, 15 minutes each, with 2.5% Triton X-100. Then, the gel was renatured in developing buffer (50 mM Tris-HCl, pH7.6, 10 mM CaCl2, 50 mM NaCl, 0.05% Brij35) at 37° C. for 48 hours. […]
# [7] = biological target: T1, MMP-13 proenzyme (human recombinant) (Homo sapiens, UniProt P45452); assay: MMP-13 enzymatic assay; format: biochemical; conditions: reference agents; read-out: Concentration at 50 % Inhibition
# T1 construct: purchased Calbiochem 444248; host or cells: Sf9 cell
# Protocol: MMP-13 proenzyme (human recombinant, expressed in Sf9 cell, Calbiochem Cat. 444248) was activated by p-aminophenylmercuric acetate for 60 minutes at 37° C. […] Enzyme activity was determined spectrofluorometrically by measuring the formation of fluorescent (7-methoxycoumarin-4-yl)acetyl-Pro-Leu-Gly.
# [8] = biological target: T2, MMP-8 (collagenase-2, stimulated human neutrophils) (Homo sapiens, UniProt P22894); assay: MMP-8 enzymatic assay; format: biochemical; conditions: reference agents; read-out: Concentration at 50 % Inhibition
# T2 construct: purchased Calbiochem 444229; host or cells: natural protein from stimulated human neutrophils
# Protocol: MMP-8 (collagenase-2, stimulated human neutrophils, Calbiochem Cat. 444229) was activated by p-aminophenylmercuric acetate for 60 minutes at 37° C. […] Enzyme activity was determined spectrofluorometrically by measuring the formation of fluorescent (7-methoxycoumarin-4-yl) acetyl-Pro-Leu-Gly.
# [9] = biological target: T3, MMP-3 (stromelysin-1, human recombinant catalytic domain) (Homo sapiens, UniProt P08254); assay: MMP-3 enzymatic assay; format: biochemical; conditions: reference agents; read-out: Concentration at 50 % Inhibition
# T3 construct: MMP-3 (stromelysin-1, human recombinant catalytic domain from Calbiochem Cat. 444217); purchased Calbiochem 444217
# Protocol: MMP-3 (stromelysin-1, human recombinant catalytic domain from Calbiochem Cat. 444217) was activated by p-aminophenylmercuric acetate for 60 minutes at 37° C. […] Enzyme activity was determined spectrofluorometrically by measuring the formation of fluorescent (7-methoxycoumarin-4-yl)acetyl-Pro-Leu-Gly.
# T3 sequence (P08254 100-272 limits assumed): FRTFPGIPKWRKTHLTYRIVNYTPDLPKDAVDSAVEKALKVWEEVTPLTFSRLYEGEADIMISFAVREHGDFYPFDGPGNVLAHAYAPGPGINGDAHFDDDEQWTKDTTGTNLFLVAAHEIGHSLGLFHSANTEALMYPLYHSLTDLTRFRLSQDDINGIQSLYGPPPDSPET
# T2 sequence (P22894 101-467): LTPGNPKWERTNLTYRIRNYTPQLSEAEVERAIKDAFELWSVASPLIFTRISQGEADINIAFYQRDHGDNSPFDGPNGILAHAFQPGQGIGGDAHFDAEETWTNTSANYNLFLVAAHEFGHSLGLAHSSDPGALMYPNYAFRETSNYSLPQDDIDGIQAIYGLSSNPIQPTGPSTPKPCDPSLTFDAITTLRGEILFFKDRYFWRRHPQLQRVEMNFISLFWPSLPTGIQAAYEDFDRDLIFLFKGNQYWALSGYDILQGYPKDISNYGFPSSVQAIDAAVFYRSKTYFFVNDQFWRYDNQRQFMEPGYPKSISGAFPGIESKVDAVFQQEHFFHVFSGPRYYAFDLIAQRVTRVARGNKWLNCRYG
molecule,measurement,setting,value
O=C(O[C@@H]1Cc2c(O)cc(O)cc2O[C@@H]1c1ccc(O)c(O)c1)c1cc(O)c(O)c(O)c1 [(−)-Epicatechin gallate],IC50,[1],6100 nM
CCOC(CN1C(=O)[C@](CC(=O)Nc2ccc(C)cc2)(NC(=O)Nc2ccc(C)cc2)c2ccccc21)OCC [AG-041R],ALP activity,chondrocyte,suppressed ALP activity
same,"expression of type II collagen, aggrecan and BMP-2 genes",chondrocyte,up-regulated
same,proteoglycan synthesis,chondrocyte,accelerated proteoglycan synthesis
N[C@H]1C(O)O[C@H](CO)[C@@H](O)[C@@H]1O (some centres unmarked) [glucosamine],ALP,chondrocytes [2]; Naphthol AS-MX phosphate/Fast red,did not show effects
same,GAGs,chondrocytes [2]; Safranin O,did not show effects
same,Collagen,chondrocytes [2]; Sirius red,did not show effects
same,baseline GAG synthesis,chondrocytes [3]; 0.1 mM glucosamine,slightly increased
same,baseline collagen synthesis,chondrocytes [3]; 0.1 mM glucosamine,slightly increased
same,effect of glucosamine on the activity of herbal preparations,"chondrocytes [3]; glucosamine 0.1 or 1 mM, preparations 0.01 mg/ml",did not affect the activity of herbal preparations
same,aggrecanase expression,chondrocytes [4]; non-shear-stressed,inhibited aggrecanase expression
same,expression of aggrecan,chondrocytes [4]; non-shear-stressed,inhibited the expression of aggrecan significantly
same,BMP-2 expression,chondrocytes [4]; non-sheared,inhibited its expression completely
same,Col I expression,chondrocytes [4]; non-sheared,inhibited Col I expression significantly
same,BMP-2 expression,chondrocytes [4]; shear-stressed,showed less activity
same,aggrecanase expression,chondrocytes [4]; shear-stressed,slight increase in aggrecanase expression
same,expression of aggrecan,chondrocytes [4]; shear-stressed,slightly increased aggrecan expression
same,MMP-2 expression,chondrocytes [4]; shear-stressed and non-shear-stressed,not to be affected
same,Col I expression,chondrocytes [4]; sheared,no effect
same,"active and latent forms of MMP-2 (68 K, 72 K bands)",MMP-2; non-sheared,showed same profiles as controls
same,"active and latent forms of MMP-2 (68 K, 72 K bands)",MMP-2; sheared,showed same profiles as controls
same,NO Concentration,"chondrocytes [5]; Non-sheared, 0 h",0.40 µM
same,NO Concentration,"chondrocytes [5]; Non-sheared, 2 h",0.00 µM
same,NO Concentration,"chondrocytes [5]; Non-sheared, 4 h",0.00 µM
same,NO Concentration,"chondrocytes [5]; Non-sheared, 7 h",0.00 µM
same,NO Concentration,"chondrocytes [5]; Non-sheared, 24 h",0.00 µM
same,NO Concentration,"chondrocytes [5]; Non-sheared, (2 h)",0.17 µM
same,NO Concentration,"chondrocytes [5]; Sheared, 0 h",4.58 µM
same,NO Concentration,"chondrocytes [5]; Sheared, 2 h",4.75 µM
same,NO Concentration,"chondrocytes [5]; Sheared, 4 h",4.58 µM
same,NO Concentration,"chondrocytes [5]; Sheared, 7 h",4.42 µM
same,NO Concentration,"chondrocytes [5]; Sheared, 24 h",4.72 µM
same,NO Concentration,"chondrocytes [5]; Sheared, (2 h)",0.85 µM
same,inhibition of NO production,"chondrocytes [5]; fluid induced shear stress 100 rpm (0.82 Pa), two hours",55%
same,ALP,[6],did not show significant effects
same,GAGs synthesis,[6],did not show significant effects
same,collagen synthesis,[6],did not show significant effects
same,"TIMP (41 K band, >118 K band)",TIMP,decrease of TIMP
"TIMP-1: tissue inhibitor of matrix metalloproteinase, comparison agent in the MMP assays",IC50,[7],6.8 nM
same,IC50,[8],3.9 nM
same,IC50,[9],7.6 nM
